From US4855308A, “Method of treating senile cognitive decline with N'-substituted aminopyridine adrenergic agents” (Warner-Lambert Company, priority 1987, dated 1989)
Like-named read-outs stand apart in the source and are kept apart here.

Legend:
[1] = system: scopolamine-induced swimming hyperactivity; experiment: scopolamine induced swimming test (SIS), reversal of scopolamine-induced swimming hyperactivity; assay type: in vivo, laboratory rats (b65); mice (b66); conditions: for inhibition in vivo at 0.32 mg/kg / inhibition in vivo at 3.2 mg/kg / inhibition in vivo at 32 mg/kg: Rattus norvegicus; for inhibition in vivo at 0.32 mg/kg: read-out: Percent Reversal Swimming Hyperactivity, Dose 0.32 mg/kg, SC; for inhibition in vivo at 3.2 mg/kg: read-out: Percent Reversal Swimming Hyperactivity, Dose 3.2 mg/kg, SC; for inhibition in vivo at 32 mg/kg: read-out: Percent Reversal Swimming Hyperactivity, Dose 32 mg/kg, SC; for reversal of scopolamine swimming hyperactivity: scopolamine-treated rats
Experimental: The biological activity of compounds of the present invention was evaluated using the "scopolamine induced swimming test" (SIS). This screen evaluated the ability of the test compounds to reverse the hyperactive swimming behavior of laboratory rats given scopolamine. in this test, untreated rats will generally swim between 20 to 30 meters during a five-minute test period. […] We have discovered unexpectedly that α2-adrenergic antagonists including the compounds in this application also reverse this swimming hyperactivity, perhaps through indirect stimulation of the cholinergic system.
SIS values are reported as the percent reversal of scopolamine, and are determined as follows: [formula] where U, SDT, and ST represent, respectively, the mean activity level in meters swum of untreated, scopolamine-and-drug-treated, and scopolamine-treated mice.

[2] = molecular target: α1-adrenergic binding site; experiment: binding at the α1-adrenergic binding site; conditions: read-out: α1 IC50 (Nanomolar)
Experimental: (§1) The binding of representative compounds of this invention at the α1-adrenergic binding site was measured using the protocol described by Hornung, R., et al, Archiv. Pharm., 308:223 (1979). Similarly, the binding at the α2:adrenergic binding site was measured using the method of Rouot, B. R., et al, Life Sci., 25: 769 (1979). The data are presented in Table 2 and illustrate the α2 selectivity of the compounds.

[3] = system: α2-adrenergic binding site; experiment: binding at the α2-adrenergic binding site; conditions: for α1/α2: ratio of IC50 α1/α2; for IC50: read-out: α2 IC50 (Nanomolar)
Experimental: The α2 binding sites are presynaptic and are involved in the control of release of norepinephrine. A compound which acts selectively as an α2-adrenergic antagonist acts to increase noradrenergic activity. Such increases in noradrenergic activity are related to improved cognitive function in animals.
as §1

[4] = system: spatial working memory in hippocamally-deficient mice; experiment: Mouse Water Maze (MWM) test; assay type: in vivo, laboratory mice; conditions: read-out: minimal effective dose (MED)
Experimental: This compound was tested in the Mouse Water Maze (MWM) test which is a direct test of spatial cognitive skill in laboratory mice. This test, which is described in Morris, R., J. Neurosci. Meth., 11: 47-60 (1984), measures the effect of a test drug on spatial working memory in hippocamally-deficient mice.

[5] = 0.32 mg/kg, SC, vs scopolamine 0.1 mg/kg, five-minute test
[6] = 3.2 mg/kg, SC, vs scopolamine 0.1 mg/kg, five-minute test
[7] = 32 mg/kg, SC, vs scopolamine 0.1 mg/kg, five-minute test

Row | SMILES | inhibition in vivo at 0.32 mg/kg [1, 5] | inhibition in vivo at 3.2 mg/kg [1, 6] | inhibition in vivo at 32 mg/kg [1, 7] | further results
1 | CN(C)c1cccc(Nc2ccncc2)c1 [Compound 11, N,N-Dimethyl-N'-4-pyridinyl-1,3-benzene-diamine] | 15% | 4% | 61% | –
2 | CC(=O)N(c1ccncc1)c1ccc(Cl)c(Cl)c1 [Compound 18, N-(3,4-Dichlorophenyl)-N-4-pyridinylacet-amide] | 33% | 34% | 30% | –
3 | COC(=O)N(c1ccncc1)c1ccc(C)cc1 [Compound 19, (4-Methylphenyl)-4-pyridinylcarbamic acid, methyl ester] | – | – | – | inhibition in vivo at 0.32 mg/kg ([1]; sc): 36%; inhibition in vivo at 3.2 mg/kg ([1]; sc): 20%; inhibition in vivo at 32 mg/kg ([1]; sc): 17%
4 | COc1cccc(Nc2ccncc2)c1 [Compound 7, N-(3-Methoxyphenyl)-4-pyridinamine] | 23% | 62% | 31% | –
5 | O=[N+]([O-])c1cccc(Nc2ccncc2)c1 [Compound 8, N-(3-Nitrophenyl)-4-pyridinamine] | 40% | 39% | 70% | –
6 | Nc1ccccc1Nc1ccncc1 [Compound 9, N-4-Pyridinyl-1,2-benzenediamine] | 15% | 18% | 72% | –
7 | CC(=O)N(c1ccncc1)c1ccc(C)cc1 [Compound 17, N-(4-Methylphenyl)-N-4-pyridinylacetamide] | 35% | 56% | 21% | IC50 [2]: > 10 µM; α1/α2 [3]: > 1.9; IC50 [3]: 5.4 µM
8 | FC(F)(F)c1cccc(Nc2ccncc2)c1 [Compound 5, N-[3-(Trifluoromethyl)phenyl]-4-pyridin-amine] | 0% | 0% | 57% | –
9 | Cc1ccc(Nc2ccncc2)c([N+](=O)[O-])c1 [Compound 16, N-(4-Methyl-2-nitrophenyl)-4-pyridinamine] | 0% | 3% | 14% | –
10 | COC(=O)C1=CCCN(C)C1 [arecoline, reference compound] | – | – | – | reversal of scopolamine swimming hyperactivity [1]: can be reversed
11 | Clc1cccc(Nc2ccncc2)c1 [Compound 4, N-(3-Chlorophenyl)-4-pyridinamine] | 0% | 27% | 75% | IC50 [2]: 7.5 µM; selectivity for binding at the α2-adrenergic site ([3]; from data in Table 2): high degree of selectivity for binding at the α2-adrenergic site; α1/α2 [3]: 56; IC50 [3]: 0.133 µM; minimal effective dose [4]: 3.2 mg/kg
12 | O=[N+]([O-])c1cc(Nc2ccncc2)ccc1Cl [Compound 15, N-(4-Chloro-3-nitrophenyl)-4-pyridinamine] | 26% | 0% | 0% | –
13 | COC(=O)c1cccc(Nc2ccncc2)c1 [Compound 12, 3-(4-Pyridinylamino)benzoic acid, methyl ester] | 15% | 0% | 8% | –
14 | CN1[C@@H]2C[C@@H](OC(=O)[C@H](CO)c3ccccc3)C[C@H]1[C@@H]1O[C@@H]12 [scopolamine, reference compound] | – | – | – | increase of swimming distances above baseline values ([1]; scopolamine 0.1 mg/kg, five-minute test period, rats): 75-125%
15 | Nc1cccc(Nc2ccncc2)c1 [Compound 10, N-4-Pyridinyl-1,3-benzenediamine] | 47% | 0% | 41% | –
16 | Cc1ccc(Nc2ccncc2)cc1 [Compound 3, N-(4-Methylphenyl)-4-pyridinamine] | 10% | 25% | 100% | IC50 [2]: 1.6 µM; α1/α2 [3]: 43; IC50 [3]: 0.037 µM
17 | Cc1cccc(Nc2ccncc2)c1 [Compound 2, N-(3-Methylphenyl)-4-pyridinamine] | 52% | 36% | 66% | –
18 | Clc1ccc(Nc2ccncc2)c(Cl)c1 [Compound 13, N-(2,4-Dichlorophenyl)-4-pyridinamine] | 0% | 24% | 0% | –
19 | c1ccc(Nc2ccncc2)cc1 [Compound 1, N-Phenyl-4-pyridinamine] | 27% | 22% | 57% | –
20 | FC(F)(F)c1ccc(Nc2ccncc2)cc1 [Compound 6, N-[4-(Trifluoromethyl)phenyl]-4-pyridin-amine] | 0% | 16% | 55% | –
21 | COC(=O)N(c1ccncc1)c1ccc(Cl)c(Cl)c1 [Compound 20, (3,4-Dichlorophenyl)-4-pyridinylcarbamic acid, methyl ester] | – | – | – | inhibition in vivo at 0.32 mg/kg ([1]; sc): 6%; inhibition in vivo at 3.2 mg/kg ([1]; sc): 0%; inhibition in vivo at 32 mg/kg ([1]; sc): 9%
22 | CN(C)C(=O)Oc1cccc([N+](C)(C)C)c1 [neostigmine, reference compound] | – | – | – | reversal of scopolamine swimming hyperactivity [1]: does not reverse the effect of scopolamine
23 | C[N+]1(C)C2CC(OC(=O)C(CO)c3ccccc3)CC1C1OC12 (stereo not shown) [scopolamine methyl nitrate, reference compound] | – | – | – | behavioral changes ([1]; same conditions as scopolamine): does not produce any behavioral changes
24 | Clc1ccc(Nc2ccncc2)cc1Cl [Compound 14, N-(3,4-Dichlorophenyl)-4-pyridinamine] | 31% | 37% | 64% | IC50 [2]: > 1 µM; α1/α2 [3]: > 8.5; IC50 [3]: 0.118 µM
25 | CNC(=O)Oc1ccc2c(c1)[C@]1(C)CCN(C)[C@@H]1N2C [physostigmine, reference compound] | – | – | – | reversal of scopolamine swimming hyperactivity [1]: can be reversed
